In PMC4522657, “Identification of a DYRK1A Inhibitor that Induces Degradation of the Target Kinase using Co-chaperone CDC37 fused with Luciferase nanoKAZ” (Scientific Reports, 2015):

Assays:
Test in all cases: Kinase panel, CaNDY 1 µM
Type in all cases: biochemical
Details in all cases: CaNDY 1 µM relative to DMSO
TAK1-TAB1_Cascade = molecular target: T1, TAK1-TAB1_Cascade (Homo sapiens, UniProt O43318)
T1 construct: purchased Carna Biosciences
Excerpt: (§1) Detailed information on the assay conditions is available on the website of Carna Biosciences (http://www.carnabio.com/english/index.html; Kobe, Japan). In brief, full-length human recombinant kinases were expressed using a baculovirus expression system as amino-terminal GST-fusion proteins, and purified by glutathione-Sepharose chromatography. The GenBank accession numbers of DYRK1A, DYRK1B, DYRK2, and DYRK3 were NP_001387.2, NP_004705.1, NP_003574.1, and NP_003573.2. Kinase activities were evaluated by Off-chip Mobility Shift Assay after reaction of 1 μM of the substrate DYRKtide-F with ATP (25 μM for DYRK1A, 50 μM for DYRK1B, 10 μM for DYRK2, and 5 μM for DYRK3). For each compound, a DMSO solution was diluted in assay buffer to yield a final concentration of 1% DMSO. After incubation for one hour at room temperature, substrate phosphorylation was analyzed by electrophoretic separation of the substrate and products using a Caliper LC3000 platform (Caliper Life Sciences, Mountain View, CA, USA). The phosphorylated product (P)/(P + substrate) ratio was calculated at each concentration of each small molecule and the percent inhibition was expressed relative to a control assay in the absence of the small molecule. […] The IC50 of each compound was calculated by interpolation on a log-concentration-response curve fitted with a four-parameter logistic equation.
(§2) All kinase assays were carried out at Carna Biosciences. The inhibitory map was made with Kinome Render[36].

MINK = molecular target: T2, MINK (Homo sapiens, UniProt Q8N4C8)
T2 construct: purchased Carna Biosciences
Excerpt: as §1, §2

CDK3/CycE1 = molecular target: T3, CDK3/CycE1 (Homo sapiens, UniProt Q00526)
T3 construct: purchased Carna Biosciences
Excerpt: as §1, §2

CDK2/CycE1 = molecular target: T4, CDK2/CycE1 (Homo sapiens, UniProt P24941)
T4 construct: purchased Carna Biosciences
Excerpt: as §1, §2

JNK1 = molecular target: T5, JNK1 (Homo sapiens, UniProt P45983)
T5 construct: purchased Carna Biosciences
Excerpt: as §1, §2

NEK9 = molecular target: T6, NEK9 (Homo sapiens, UniProt Q8TD19)
T6 construct: purchased Carna Biosciences
Excerpt: as §1, §2

AKT2 = molecular target: T7, AKT2 (Homo sapiens, UniProt P31751)
T7 construct: purchased Carna Biosciences
Excerpt: as §1, §2

LYNa = molecular target: T8, LYNa (Homo sapiens, UniProt P07948)
T8 construct: purchased Carna Biosciences
Excerpt: as §1, §2

MELK = molecular target: T9, MELK (Homo sapiens, UniProt Q14680)
T9 construct: purchased Carna Biosciences
Excerpt: as §1, §2

PKCθ = molecular target: T10, PKCθ (Homo sapiens, UniProt Q04759)
T10 construct: purchased Carna Biosciences
Excerpt: as §1, §2

IGF1R = molecular target: T11, IGF1R (Homo sapiens, UniProt P08069)
T11 construct: purchased Carna Biosciences
Excerpt: as §1, §2

DYRK2 = molecular target: T12, DYRK2 (Homo sapiens, UniProt Q92630)
T12 construct: purchased Carna Biosciences
Excerpt: as §1, §2

EPHB4 = molecular target: T13, EPHB4 (Homo sapiens, UniProt P54760)
T13 construct: purchased Carna Biosciences
Excerpt: as §1, §2

DYRK3 = molecular target: T14, DYRK3 (Homo sapiens, UniProt O43781)
T14 construct: purchased Carna Biosciences
Excerpt: as §1, §2

PKCη = molecular target: T15, PKCη (Homo sapiens, UniProt P24723)
T15 construct: purchased Carna Biosciences
Excerpt: as §1, §2

KIT(V654A) = molecular target: T16, KIT(V654A) (Homo sapiens, UniProt P10721, V654A)
T16 construct: purchased Carna Biosciences
Excerpt: as §1, §2

BMX = molecular target: T17, BMX (Homo sapiens, UniProt P51813)
T17 construct: purchased Carna Biosciences
Excerpt: as §1, §2

EPHA2 = molecular target: T18, EPHA2 (Homo sapiens, UniProt P29317)
T18 construct: purchased Carna Biosciences
Excerpt: as §1, §2

CaMK2δ = molecular target: T19, CaMK2δ (Homo sapiens, UniProt Q13557)
T19 construct: purchased Carna Biosciences
Excerpt: as §1, §2

TSSK2 = molecular target: T20, TSSK2 (Homo sapiens, UniProt Q96PF2)
T20 construct: purchased Carna Biosciences
Excerpt: as §1, §2

PIM3 = molecular target: T21, PIM3 (Homo sapiens, UniProt Q86V86)
T21 construct: purchased Carna Biosciences
Excerpt: as §1, §2

FGFR4(V550E) = molecular target: T22, FGFR4(V550E) (Homo sapiens, UniProt P22455, V550E)
T22 construct: purchased Carna Biosciences
Excerpt: as §1, §2

CDK6/CycD3 = molecular target: T23, CDK6/CycD3 (Homo sapiens, UniProt Q00534)
T23 construct: purchased Carna Biosciences
Excerpt: as §1, §2

CDK7/CycH/MAT1 = molecular target: T24, CDK7/CycH/MAT1 (Homo sapiens, UniProt P50613)
T24 construct: purchased Carna Biosciences
Excerpt: as §1, §2

CDK5/p25 = molecular target: T25, CDK5/p25 (Homo sapiens, UniProt Q00535)
T25 construct: purchased Carna Biosciences
Excerpt: as §1, §2

EPHA8 = molecular target: T26, EPHA8 (Homo sapiens, UniProt P29322)
T26 construct: purchased Carna Biosciences
Excerpt: as §1, §2

TNIK = molecular target: T27, TNIK (Homo sapiens, UniProt Q9UKE5)
T27 construct: purchased Carna Biosciences
Excerpt: as §1, §2

ARG = molecular target: T28, ARG (Homo sapiens, UniProt P42684)
T28 construct: purchased Carna Biosciences
Excerpt: as §1, §2

NEK7 = molecular target: T29, NEK7 (Homo sapiens, UniProt Q8TDX7)
T29 construct: purchased Carna Biosciences
Excerpt: as §1, §2

MAP2K4_Cascade = molecular target: T30, MAP2K4_Cascade (Homo sapiens, UniProt P45985)
T30 construct: purchased Carna Biosciences
Excerpt: as §1, §2

CGK2 = molecular target: T31, CGK2 (Homo sapiens, UniProt Q13237)
T31 construct: purchased Carna Biosciences
Excerpt: as §1, §2

DDR1 = molecular target: T32, DDR1 (Homo sapiens, UniProt Q08345)
T32 construct: purchased Carna Biosciences
Excerpt: as §1, §2

PAK4 = molecular target: T33, PAK4 (Homo sapiens, UniProt O96013)
T33 construct: purchased Carna Biosciences
Excerpt: as §1, §2

AurA = molecular target: T34, AurA (Homo sapiens, UniProt O14965)
T34 construct: purchased Carna Biosciences
Excerpt: as §1, §2

EPHB3 = molecular target: T35, EPHB3 (Homo sapiens, UniProt P54753)
T35 construct: purchased Carna Biosciences
Excerpt: as §1, §2

PKCε = molecular target: T36, PKCε (Homo sapiens, UniProt Q02156)
T36 construct: purchased Carna Biosciences
Excerpt: as §1, §2

T12 sequence (Q92630 whole entry): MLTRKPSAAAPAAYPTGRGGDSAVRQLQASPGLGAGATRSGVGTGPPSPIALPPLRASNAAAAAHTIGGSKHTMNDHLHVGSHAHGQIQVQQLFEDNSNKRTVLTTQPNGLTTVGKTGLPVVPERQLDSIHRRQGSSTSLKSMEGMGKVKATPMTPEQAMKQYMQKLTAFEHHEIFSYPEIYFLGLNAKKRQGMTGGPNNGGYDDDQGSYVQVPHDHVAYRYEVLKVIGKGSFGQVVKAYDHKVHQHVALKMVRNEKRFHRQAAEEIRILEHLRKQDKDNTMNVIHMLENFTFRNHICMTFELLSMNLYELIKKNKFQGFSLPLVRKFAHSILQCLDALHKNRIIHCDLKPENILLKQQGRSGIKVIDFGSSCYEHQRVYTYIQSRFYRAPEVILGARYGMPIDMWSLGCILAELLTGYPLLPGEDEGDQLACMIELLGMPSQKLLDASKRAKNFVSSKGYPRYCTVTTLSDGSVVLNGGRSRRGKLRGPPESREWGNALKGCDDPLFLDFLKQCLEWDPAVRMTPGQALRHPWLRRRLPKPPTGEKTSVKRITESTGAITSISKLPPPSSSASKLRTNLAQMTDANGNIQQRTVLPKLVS
T35 sequence (P54753 34-998): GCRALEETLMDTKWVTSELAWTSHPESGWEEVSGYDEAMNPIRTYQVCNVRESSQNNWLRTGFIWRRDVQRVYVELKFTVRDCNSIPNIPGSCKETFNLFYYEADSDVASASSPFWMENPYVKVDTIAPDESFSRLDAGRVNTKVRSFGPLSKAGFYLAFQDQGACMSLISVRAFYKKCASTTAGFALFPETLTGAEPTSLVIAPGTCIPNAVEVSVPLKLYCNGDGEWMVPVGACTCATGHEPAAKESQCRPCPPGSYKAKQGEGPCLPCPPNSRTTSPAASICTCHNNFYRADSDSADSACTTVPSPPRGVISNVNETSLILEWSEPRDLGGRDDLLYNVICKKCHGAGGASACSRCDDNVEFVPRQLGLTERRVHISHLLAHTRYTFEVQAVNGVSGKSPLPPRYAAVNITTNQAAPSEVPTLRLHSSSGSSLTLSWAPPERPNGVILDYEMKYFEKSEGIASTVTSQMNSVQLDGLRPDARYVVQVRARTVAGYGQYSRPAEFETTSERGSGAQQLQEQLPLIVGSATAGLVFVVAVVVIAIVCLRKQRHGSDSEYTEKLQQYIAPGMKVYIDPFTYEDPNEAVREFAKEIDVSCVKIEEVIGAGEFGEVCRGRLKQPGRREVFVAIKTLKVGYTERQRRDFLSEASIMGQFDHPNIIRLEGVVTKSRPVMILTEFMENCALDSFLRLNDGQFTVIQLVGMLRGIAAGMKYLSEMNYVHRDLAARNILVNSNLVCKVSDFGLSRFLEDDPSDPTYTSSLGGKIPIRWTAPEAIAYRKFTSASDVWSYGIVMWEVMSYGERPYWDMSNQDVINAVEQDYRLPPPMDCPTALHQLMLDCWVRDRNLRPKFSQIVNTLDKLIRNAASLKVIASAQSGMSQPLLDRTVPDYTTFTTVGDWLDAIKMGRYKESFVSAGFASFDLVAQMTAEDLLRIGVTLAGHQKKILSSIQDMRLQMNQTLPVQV
T25 sequence (Q00535 whole entry): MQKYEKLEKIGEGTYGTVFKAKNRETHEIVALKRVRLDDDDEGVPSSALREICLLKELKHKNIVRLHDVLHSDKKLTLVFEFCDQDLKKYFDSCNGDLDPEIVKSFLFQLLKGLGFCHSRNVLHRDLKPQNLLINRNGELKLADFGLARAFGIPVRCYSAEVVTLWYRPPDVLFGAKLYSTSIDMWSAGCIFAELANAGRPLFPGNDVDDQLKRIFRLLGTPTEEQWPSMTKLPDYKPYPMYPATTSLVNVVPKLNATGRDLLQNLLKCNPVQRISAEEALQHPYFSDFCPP
T25 sequence (Q15078 99-307 partner limits assumed): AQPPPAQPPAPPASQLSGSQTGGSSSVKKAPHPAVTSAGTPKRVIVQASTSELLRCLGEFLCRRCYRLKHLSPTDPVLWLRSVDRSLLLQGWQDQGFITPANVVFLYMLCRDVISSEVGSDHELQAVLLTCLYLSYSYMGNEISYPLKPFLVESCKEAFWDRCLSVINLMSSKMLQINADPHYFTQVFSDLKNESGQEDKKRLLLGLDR
T27 sequence (Q9UKE5 whole entry): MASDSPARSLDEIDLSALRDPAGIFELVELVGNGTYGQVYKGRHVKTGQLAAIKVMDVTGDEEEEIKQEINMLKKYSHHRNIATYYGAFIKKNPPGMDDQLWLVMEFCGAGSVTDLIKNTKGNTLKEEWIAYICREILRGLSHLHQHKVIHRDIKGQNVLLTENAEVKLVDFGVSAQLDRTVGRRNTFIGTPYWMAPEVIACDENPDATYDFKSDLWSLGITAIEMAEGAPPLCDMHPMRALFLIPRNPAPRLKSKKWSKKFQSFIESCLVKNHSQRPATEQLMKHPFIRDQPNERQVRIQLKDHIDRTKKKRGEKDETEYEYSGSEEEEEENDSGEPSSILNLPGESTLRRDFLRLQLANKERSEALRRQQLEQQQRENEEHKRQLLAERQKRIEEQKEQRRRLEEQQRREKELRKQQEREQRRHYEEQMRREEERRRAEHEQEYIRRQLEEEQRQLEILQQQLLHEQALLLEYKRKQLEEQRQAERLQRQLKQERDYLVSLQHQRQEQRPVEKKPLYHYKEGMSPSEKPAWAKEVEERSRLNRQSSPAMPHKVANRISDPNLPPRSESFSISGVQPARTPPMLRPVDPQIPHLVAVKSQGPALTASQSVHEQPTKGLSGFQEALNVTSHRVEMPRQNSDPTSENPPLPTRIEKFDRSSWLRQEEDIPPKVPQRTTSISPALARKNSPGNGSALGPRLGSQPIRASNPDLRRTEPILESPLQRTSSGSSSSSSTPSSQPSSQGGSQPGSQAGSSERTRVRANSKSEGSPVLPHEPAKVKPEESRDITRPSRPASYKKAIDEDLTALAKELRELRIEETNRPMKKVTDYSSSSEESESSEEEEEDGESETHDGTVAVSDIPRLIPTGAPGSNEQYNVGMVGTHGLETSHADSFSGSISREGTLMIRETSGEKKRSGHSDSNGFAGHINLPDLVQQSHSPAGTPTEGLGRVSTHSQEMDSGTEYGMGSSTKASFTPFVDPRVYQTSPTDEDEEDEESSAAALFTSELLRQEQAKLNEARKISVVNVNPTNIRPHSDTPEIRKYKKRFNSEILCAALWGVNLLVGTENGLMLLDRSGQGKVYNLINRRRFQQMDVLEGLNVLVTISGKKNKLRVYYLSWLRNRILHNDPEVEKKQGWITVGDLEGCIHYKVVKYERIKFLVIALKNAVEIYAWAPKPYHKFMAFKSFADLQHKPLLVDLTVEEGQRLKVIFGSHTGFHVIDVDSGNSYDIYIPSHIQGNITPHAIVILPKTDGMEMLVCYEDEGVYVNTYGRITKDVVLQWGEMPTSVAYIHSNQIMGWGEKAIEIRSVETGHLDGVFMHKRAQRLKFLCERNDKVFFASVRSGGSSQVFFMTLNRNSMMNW
T30 sequence (P45985 whole entry): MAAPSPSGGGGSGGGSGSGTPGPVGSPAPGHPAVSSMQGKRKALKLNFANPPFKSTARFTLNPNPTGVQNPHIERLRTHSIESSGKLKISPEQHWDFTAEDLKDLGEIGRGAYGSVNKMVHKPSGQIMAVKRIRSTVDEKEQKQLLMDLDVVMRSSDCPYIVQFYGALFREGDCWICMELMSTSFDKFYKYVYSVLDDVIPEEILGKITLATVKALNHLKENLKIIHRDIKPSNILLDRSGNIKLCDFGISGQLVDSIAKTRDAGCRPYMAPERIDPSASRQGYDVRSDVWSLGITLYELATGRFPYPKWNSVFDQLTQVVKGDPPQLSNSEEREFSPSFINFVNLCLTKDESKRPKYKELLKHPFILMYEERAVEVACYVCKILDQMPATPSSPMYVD
T26 sequence (P29322 28-1005): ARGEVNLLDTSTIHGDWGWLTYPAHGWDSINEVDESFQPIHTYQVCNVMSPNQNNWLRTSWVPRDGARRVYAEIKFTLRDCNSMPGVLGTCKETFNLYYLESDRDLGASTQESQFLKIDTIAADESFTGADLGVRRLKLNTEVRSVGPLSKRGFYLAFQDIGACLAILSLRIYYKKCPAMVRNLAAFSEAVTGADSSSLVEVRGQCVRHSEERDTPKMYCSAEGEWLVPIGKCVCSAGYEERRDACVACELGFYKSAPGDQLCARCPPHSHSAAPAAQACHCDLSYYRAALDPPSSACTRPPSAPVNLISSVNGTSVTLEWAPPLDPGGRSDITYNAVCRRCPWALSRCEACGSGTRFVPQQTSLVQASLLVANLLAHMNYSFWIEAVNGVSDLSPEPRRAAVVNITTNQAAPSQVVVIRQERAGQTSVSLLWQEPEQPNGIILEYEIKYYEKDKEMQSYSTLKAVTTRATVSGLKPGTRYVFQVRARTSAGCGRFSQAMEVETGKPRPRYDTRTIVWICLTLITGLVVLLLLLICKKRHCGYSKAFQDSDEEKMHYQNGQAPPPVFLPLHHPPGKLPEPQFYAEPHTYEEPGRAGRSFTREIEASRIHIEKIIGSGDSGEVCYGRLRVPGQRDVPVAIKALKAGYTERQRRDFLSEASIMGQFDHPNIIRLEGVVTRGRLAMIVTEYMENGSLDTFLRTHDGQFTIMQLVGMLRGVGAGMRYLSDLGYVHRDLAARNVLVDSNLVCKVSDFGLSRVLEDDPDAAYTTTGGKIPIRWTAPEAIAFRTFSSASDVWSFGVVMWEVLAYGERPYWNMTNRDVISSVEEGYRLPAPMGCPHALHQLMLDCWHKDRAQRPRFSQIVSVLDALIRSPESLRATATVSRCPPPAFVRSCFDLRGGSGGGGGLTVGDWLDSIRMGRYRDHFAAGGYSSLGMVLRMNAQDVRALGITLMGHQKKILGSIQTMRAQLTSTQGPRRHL

SMILES: [H]/N=C1/NC(=O)C(=Cc2ccc3c(c2)CCO3)S1 [CaNDY, (Z)-5-[(2,3-dihydrobenzofuran-5-yl)methylene]-2-iminothiazolidin-4-one]
- remaining activity at 1 µM (TAK1-TAB1_Cascade): 104%
- remaining activity at 1 µM (MINK): 83.7%
- %Activity (CDK3/CycE1): 94.7%
- %Activity (CDK2/CycE1): 87.5%
- %Activity (JNK1): 102.4%
- remaining activity at 1 µM (NEK9): 91.6%
- remaining activity at 1 µM (AKT2): 105%
- remaining activity at 1 µM (LYNa): 97.6%
- remaining activity at 1 µM (MELK): 91.5%
- remaining activity at 1 µM (PKCθ): 74.9%
- remaining activity at 1 µM (IGF1R): 101%
- remaining activity at 1 µM (DYRK2): 20.3%
- remaining activity at 1 µM (EPHB4): 96.6%
- remaining activity at 1 µM (DYRK3): 11%
- remaining activity at 1 µM (PKCη): 92.8%
- remaining activity at 1 µM (KIT(V654A)): 98.5%
- remaining activity at 1 µM (BMX): 100%
- remaining activity at 1 µM (EPHA2): 100%
- remaining activity at 1 µM (CaMK2δ): 89.6%
- remaining activity at 1 µM (TSSK2): 102%
- remaining activity at 1 µM (PIM3): 41.4%
- remaining activity at 1 µM (FGFR4(V550E)): 102%
- remaining activity at 1 µM (CDK6/CycD3): 97.1%
- remaining activity at 1 µM (CDK7/CycH/MAT1): 93.6%
- remaining activity at 1 µM (CDK5/p25): 88.5%
- remaining activity at 1 µM (EPHA8): 101%
- remaining activity at 1 µM (TNIK): 60%
- remaining activity at 1 µM (ARG): 98.8%
- remaining activity at 1 µM (NEK7): 102%
- remaining activity at 1 µM (MAP2K4_Cascade): 100%
- remaining activity at 1 µM (CGK2): 71.1%
- remaining activity at 1 µM (DDR1): 99.3%
- remaining activity at 1 µM (PAK4): 95%
- remaining activity at 1 µM (AurA): 114%
- remaining activity at 1 µM (EPHB3): 98.6%
- remaining activity at 1 µM (PKCε): 91.9%
